Reference: patent US8461165B2, “2-Substituted phenyl-5,7-dihydrocarbyl-3,7-dihydropyrrolo[2,3-d] pyrimidin-4-one derivatives, the preparation and the pharmaceutical use thereof” (Yangtze River Pharmaceutical (Group) Co., Ltd, priority 2003, dated 2013)
Counter-ions that a name gives are not always drawn.

Legend:
male rabbit = experiment: penis erection experiment in conscious male rabbits; format: in vivo; details: for Length of rabbit penis: conscious rabbits, average of 3 rabbits
Description: (Bischoff E.; Schneider K, International Journal of Impotence Research, 2001, 13, 230 235)
The hydrochloride of 3,7-dihydropyrrolo[2,3-d]pyrimidin-4-one derivatives was dissolved into water, and injected to conscious-rabbits intravenously (i.v.) (0.1 mg-3 mg/kg). Erection was accessed by comparing the length of penis before and at 0, 30, 60, 90 and 120 minutes after intravenous administration of the above-mentioned agents.

mice = experiment: acute toxicity in mice; format: in vivo; details: single dose
Description: Furthermore, none of any obvious sign of adverse acute toxicity is shown for the compounds of this invention tested in rat and dog, both intravenously (i.v.) and orally (p.o.) at up to 3 mg/Kg, has shown. For the situation of mice, no deaths occurred after doses of up to 100 mg/Kg i.v. The LD50 for a single dose of compound I-HCl in mice is 2000 mg/kg.

male rats = experiment: effect of single administration on the coitus function of male rats; format: in vivo, rat; details: 24 mg/kg oral; for the latent period of straddle / the latent period of the coitus / times of straddle / times of the coitus: single administration, 20 min observation, average ± standard deviation
Description: After purchasing, the male rat and the estrogenized female rat were kept in the same cage for 2 days, and the male rat would acquire the sexual experiences. Then, the female rat was taken out of the cage, and the experiments began after the male rat stayed alone in a cage for 5 days. Each tested compound was orally administered in a dosage of 24 mg/kg, the positive group was administered with Sildenafil citrate (Viagra) in a dosage of 24 mg/kg, and the control group was administered with saline at the equal volume (0.1 ml/10 g). Fifty minutes after administration, the tested male rats were placed within a observation container (both the diameter and the height of the container were 24 cm), and the male rats adapted the new environment for 5 minutes. After that, two estrogenized female rats were placed into the container. The sexual behavior of the male rats in 20 minutes was observed under the non-interfering condition using Panasonic WVCP410/G monitor, the latent period of straddle, times of straddle, as well as the latent period of the coitus and times of the coitus. All the experiments were carried out at 21-24° C., and completed before 11:00 AM. The comparative results among the compounds of the invention, the blank and the positive control drug Sildenafil citrate were listed in Table 2.

[1] = molecular target: phosphodiesterase 5 (PDE5) (Homo sapiens, UniProt O76074); experiment: inhibition of phosphodiesterase 5 (SPA technique); format: biochemical
Description: The bioactivity inhibiting phosphodiesterase 5 (PDE5) of compounds of formula I was measured cross the reference of methods (Hidaka H, et al Biochim. Biochim. Biophys. Acta, 1976, 429, 485; Kim D-K, et al., Bioorg. Med. Chem. 2001, 9, 3013). The inhibiting activity of PDE5 was determined using SPA technique and the method of chemical fluorescence. The method was as follows: firstly, the reaction time curve and the enzyme concentration curve of PDE5 reaction system were determined by Microplate Scintillation & Luminescence Counter (TopCount Counter), by which the optimal reaction condition was determined. Under the optimized conditions, the inhibition experiments on PDE5 were carried out.

man = details: cited from earlier work
[2] = 0 min after i.v. administration (0.1 mg-3 mg/kg)
[3] = 30 min after i.v. administration (0.1 mg-3 mg/kg)
[4] = 60 min after i.v. administration (0.1 mg-3 mg/kg)
[5] = 90 min after i.v. administration (0.1 mg-3 mg/kg)
[6] = 120 min after i.v. administration (0.1 mg-3 mg/kg)

Row | Structure (SMILES) | Length of rabbit penis (male rabbit; [2]) [mm] | Length of rabbit penis (male rabbit; [3]) [mm] | Length of rabbit penis (male rabbit; [4]) [mm] | Length of rabbit penis (male rabbit; [5]) [mm] | Length of rabbit penis (male rabbit; [6]) [mm] | the latent period of straddle (male rats) [min] | the latent period of the coitus (male rats) [min] | times of straddle (male rats) | times of the coitus (male rats) | further results
1 | CCCn1cc(C)c2c(=O)[nH]c(-c3cc(S(=O)(=O)N4CCN(CC)CC4)ccc3OCC)nc21.Cl.Cl [Compound 1-2HCl, 2-[2-ethoxyl-5-(4-ethylpiperazinyl-1-sulfonyl)phenyl]-5-methyl-7-n-propyl-3,7-dihydropyrrolo[2,3-d]pyrimidin-4-one dihydrochloride] | 1.3 | 3.0 | 2.0 | 1.0 | 1.0 |  |  |  |  | 
2 | CCCn1cc(C)c2c(=O)[nH]c(-c3cc(S(=O)(=O)N4CCN(CC)CC4)ccc3OCC)nc21.Cl [Compound 1-HCl, 2-[2-ethoxyl-5-(4-ethylpiperazinyl-1-sulfonyl)phenyl]-5-methyl-7-n-propyl-3,7-dihydropyrrolo[2,3-d]pyrimidin-4-one monohydrochloride] | 8.3 | 5.7 | 5.3 | 2.0 | 1.3 | 2.6 ± 1.13 | 7.1 ± 5.62 | 7.6 ± 2.70 | 13.1 ± 8.77 | LD50 (mice): 2000 mg/kg; effect on sexual function compared with Sildenafil citrate (male rats; both groups): stronger than that of the Sildenafil citrate group; times of the coitus compared with positive control group (male rats; versus Sildenafil citrate, p<0.05): much more than that of the positive control group; indexes of sexual function of the rats (in words) (male rats; versus saline): obviously enhanced; latent period of coitus (in words) (male rats; versus saline): remarkably shortened; latent period of straddle (in words) (male rats; versus saline): remarkably shortened; times of the coitus (in words) (male rats; versus saline): obviously increased; inhibiting rate on PDE5 ([1]; concentration 10^−8 mol/L): 65.62%; potential in treatment of functional erectile dysfunction (in words) (male rabbit; rabbit penis erection, i.v.): quick onset and prolonged effectiveness
3 | CCCn1cc(C)c2c(=O)[nH]c(-c3cc(S(=O)(=O)N4CCN(C)CC4)ccc3OCC)nc21.Cl [Compound 6-2HCl, 2-[2-ethoxyl-5-(4-methylpiperazinyl-1-sulfonyl)phenyl]-5-methyl-7-n-propyl-3,7-dihydropyrrolo[2,3-d]pyrimidin-4-one] | 0.0 | 5.3 | 2.7 | 1.7 | 0.0 |  |  |  |  | 
4 | CCCn1cc(C)c2c(=O)[nH]c(-c3cc(S(=O)(=O)N4CCN(C)CC4)ccc3OCC)nc21.Cl [Compound 6-HCl, 2-[2-ethoxyl-5-(4-methylpiperazinyl-1-sulfonyl)phenyl]-5-methyl-7-n-propyl-3,7-dihydropyrrolo[2,3-d]pyrimidin-4-one] |  |  |  |  |  | 6.4 ± 3.07 | 8.8 ± 5.85 | 8.0 ± 3.93 | 9.0 ± 8.50 | latent period of coitus compared with positive control group (male rats; versus Sildenafil citrate): remarkably shorter than that of the positive control group; indexes of sexual function of the rats (in words) (male rats; versus saline): obviously enhanced
5 | CCCn1cc(C)c2c(=O)[nH]c(-c3cc(S(=O)(=O)N4CCN(C(=O)OCC)CC4)ccc3OCC)nc21.Cl.Cl [Compound 8-2HCl, 2-[2-ethoxyl-5-(4-ethoxylcarbonylpiperazinyl-1-sulfonyl)phenyl]-5-methyl-7-n-propyl-3,7-dihydropyrrolo[2,3-d]pyrimidin-4-one] | 2.7 | 1.7 | 1.3 | 0.7 | 0.0 |  |  |  |  | 
6 | CCCn1cc(C)c2c(=O)[nH]c(-c3cc(S(=O)(=O)N4CCN(Cc5ccccc5)CC4)ccc3OCC)nc21.Cl.Cl [Compound 19-2HCl, 2-[2-ethoxyl-5-(4-benzylpiperazinyl-1-sulfonyl)phenyl]-5-methyl-7-n-propyl-3,7-dihydropyrrolo[2,3-d]pyrimidin-4-one] | 1.7 | 4.0 | 4.3 | 4.0 | 0.0 |  |  |  |  | 
7 | CCCc1nn(C)c2c(=O)[nH]c(-c3cc(S(=O)(=O)N4CCN(C)CC4)ccc3OCC)nc12 [Sildenafil citrate, reference compound] |  |  |  |  |  | 5.0 ± 4.74 | 8.2 ± 4.02 | 12.7 ± 7.18 | 8.2 ± 5.25 | 
8 | CCCc1nn(C)c2c(=O)[nH]c(-c3cc(S(=O)(=O)N4CCN(C)CC4)ccc3OCC)nc12 [sildenafil, reference compound] |  |  |  |  |  |  |  |  |  | inhibition at 0.01 µM ([1]; read-out: inhibiting rate on PDE5): 31.7%; effective rates in treating male sexual organs erectile dysfunction (man): 80%
